Reference: patent US11040954B1, “CXCR3 receptor agonists” (RECEPTOS LLC, priority 2016, dated 2021)

Each compound was assayed against T1, CXCR3 (Homo sapiens, UniProt P49682) (assay: CXCR3 cAMP agonist assay (cAMP Hunter CHOK1 CXCR3 Gi cell line, forskolin-stimulated, HitHunter cAMP detection)). Conditions: not given.
T1 construct: host or cells: CHO-K1 (cAMP Hunter CHOK1 CXCR3 Gi cell line)
T1 sequence (P49682 1-368): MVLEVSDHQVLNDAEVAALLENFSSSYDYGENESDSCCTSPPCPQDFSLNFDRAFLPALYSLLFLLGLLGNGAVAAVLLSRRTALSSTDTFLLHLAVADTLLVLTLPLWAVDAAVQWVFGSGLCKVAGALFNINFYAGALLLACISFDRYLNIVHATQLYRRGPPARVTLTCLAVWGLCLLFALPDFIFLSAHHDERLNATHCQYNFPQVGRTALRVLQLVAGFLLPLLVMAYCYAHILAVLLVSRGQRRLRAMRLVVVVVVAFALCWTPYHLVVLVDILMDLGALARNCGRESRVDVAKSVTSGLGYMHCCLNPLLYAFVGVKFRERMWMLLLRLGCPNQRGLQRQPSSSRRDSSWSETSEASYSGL
Type: cell-based
In short: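 CHOK1 cells expressing human CXCR3 with Gi coupling, 50,000/well in suspension in HBSS/10 mM HEPES/0.1% BSA pH 7.4, were co-treated with 20 μM forskolin and compound (12-point, 0-10 μM, 1% DMSO) for 30 min. cAMP was read by enzyme-complementation luminescence; CXCL11 dose response set maximum efficacy.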

| Compound | EC50 [nM] |
| --- | --- |
| Cc1cc(NC(=O)[C@H](CCN)NC(=O)[C@@H]2Cc3ccccc3CN2C(=O)CCC(=O)N2CCC(=O)CC2)ccc1Cl [Compound 12-86] | 250 to 500 |

Same assay, conditions: cAMP Hunter CHOK1 CXCR3 Gi cells, 20 μM forskolin, 30 minutes; read-out: Activity (CXCR3 cAMP agonist assay compound EC50)

| Compound | EC50 [nM] |
| --- | --- |
| NCC[C@H](NC(=O)[C@@H]1Cc2ccccc2CN1C(=O)CCC(=O)N1CCC2(CC1)CC(F)(F)C2)C(=O)Nc1ccc(Cl)c(Cl)c1F [Compound 15-24] | 250 to 500 |
| Cc1cc(NC(=O)[C@H](Cc2ccnc(N)c2)NC(=O)[C@@H]2Cc3ccccc3CN2C(=O)CCC(=O)c2ccccc2)ccc1Cl [Compound 3-10] | 50 to 250 |
| CC(C)(C)CNC(=O)CCC(=O)N1Cc2ccccc2C[C@H]1C(=O)NC1(C(=O)Nc2ccc(Cl)c(Cl)c2F)CCNCC1 [Compound 12-129] | 250 to 500 |
| CC1(C)CCCCN1C(=O)CCC(=O)N1Cc2ccc(F)cc2C[C@H]1C(=O)N[C@@H](CCN)C(=O)Nc1ccc(Cl)c(Cl)c1F [Compound 34-1, (S)—N—((S)-4-amino-1-((3,4-dichloro-2-fluorophenyl)amino)-1-oxobutan-2-yl)-2-(4-(2,2-dimethylpiperidin-1-yl)-4-oxobutanoyl)-6-fluoro-1,2,3,4-tetrahydroisoquinoline-3-carboxamide] | < 50 |
| NCC[C@H](NC(=O)[C@@H]1Cc2ccccc2CN1C(=O)CCC(=O)N1CCCCCC1)C(=O)Nc1ccc(Cl)c(Cl)c1F [Compound 15-15] | < 50 |
| Cc1cc(NC(=O)[C@H](CCN)NC(=O)[C@@H]2Cc3ccccc3CN2C(=O)CCC(=O)N2CCc3ccccc3C2)ccc1Cl [Compound 12-76] | < 50 |
| Cc1cc(NC(=O)[C@H](CCN)NC(=O)[C@@H]2Cc3ccccc3CN2C(=O)CCC(=O)N2CCC[C@H](C)C2)ccc1Cl [Compound 12-58] | < 50 |
| Cc1cc(NC(=O)C(Cc2cccnc2)NC(=O)[C@@H]2Cc3ccccc3CN2C(=O)CCC(=O)c2ccccc2)ccc1Cl (mixture of isomers) [Compound 3-3] | 250 to 500 |
| CS(=O)(=O)NCC[C@H](NC(=O)[C@@H]1Cc2ccccc2CN1C(=O)CCC(=O)N1CCCCC1)C(=O)Nc1ccc(Cl)c(Cl)c1F [Compound 32-1, (S)—N—((S)-1-((3,4-dichloro-2-fluorophenyl)amino)-4-(methylsulfonamido)-1-oxobutan-2-yl)-2-(4-oxo-4-(piperidin-1-yl)butanoyl)-1,2,3,4-tetrahydroisoquinoline-3-carboxamide] | 50 to 250 |
| CC[C@@H]1CCCN1C(=O)CCC(=O)N1Cc2ccccc2C[C@H]1C(=O)N[C@@H](CCN)C(=O)Nc1ccc(Cl)c(C)c1 [Compound 12-65] | < 50 |
| NCC[C@H](NC(=O)[C@@H]1Cc2ccccc2CN1C(=O)CCC(=O)c1ccccc1)C(=O)Nc1ccc2c(c1)C(=O)CC2 [Compound 2-68] | 50 to 250 |
| CC[C@H]1CCCCN1C(=O)CCC(=O)N1Cc2ccccc2C[C@H]1C(=O)N[C@@H](CCN)C(=O)Nc1ccc(Cl)c(C)c1 [Compound 12-97] | < 50 |
| Cc1cc(C#N)c(NC(=O)[C@H](CCN)NC(=O)[C@@H]2Cc3ccccc3CN2C(=O)CCC(=O)c2ccccc2)cc1Cl [Compound 35-2] | < 50 |
| O=C(CCC(=O)N1Cc2ccccc2C[C@H]1C(=O)N[C@@H](CCN1CCCC(F)(F)C1)C(=O)Nc1ccc(Cl)c(Cl)c1F)c1ccccc1 [Compound 23-5] | 250 to 500 |
| Cc1cc(NC(=O)[C@H](CCN)NC(=O)[C@@H]2Cc3ccccc3CN2C(=O)CCC(=O)N2CC[C@H](N(C)C)C2)ccc1Cl [Compound 12-49] | < 50 |
| Cc1cc(NC(=O)[C@H](CCN)NC(=O)[C@@H]2Cc3ccccc3CN2C(=O)CCC(=O)N2CCN(C)[C@H](C)C2)ccc1Cl [Compound 12-35] | < 50 |
| NCC[C@H](NC(=O)[C@@H]1Cc2ccccc2CN1C(=O)CCC(=O)c1ccccc1)C(=O)Nc1cc2c(cc1F)CCC2 [Compound 2-78] | < 50 |
| NCC[C@H](NC(=O)[C@@H]1Cc2ccccc2CN1C(=O)CCC(=O)N1CCCCC1C(F)F)C(=O)Nc1ccc(Cl)c(Cl)c1F (some centres unmarked) [Compound 15-56] | < 50 |
| NCC[C@H](NC(=O)[C@@H]1Cc2ccccc2CN1C(=O)CCC(=O)N1CCCC(CF)C1)C(=O)Nc1ccc(Cl)c(Cl)c1F (some centres unmarked) [Compound 15-25] | < 50 |
| Cc1ccccc1NC(=O)[C@H](CCCCN)NC(=O)[C@@H]1Cc2ccccc2CN1C(=O)CCC(=O)c1ccccc1 [Compound 1-12] | 250 to 500 |
| NCCCC[C@H](NC(=O)[C@@H]1Cc2ccccc2CN1C(=O)CCC(=O)c1ccccc1)C(=O)Nc1ccc(Cl)cc1 [Compound 1-2] | 250 to 500 |
| NCC[C@H](NC(=O)[C@@H]1Cc2ccccc2CN1C(=O)CCC(=O)N1CCC(C(F)(F)F)C1)C(=O)Nc1ccc(Cl)c(Cl)c1F (some centres unmarked) [Compound 15-47] | < 50 |
| Cc1cc(NC(=O)[C@H](CCN)NC(=O)[C@@H]2Cc3ccccc3CN2C(=O)CCC(=O)N2CCC[C@H]2C)ccc1Cl [Compound 12-46] | < 50 |
| Cc1cc(NC(=O)[C@H](CCN)NC(=O)[C@@H]2Cc3ccccc3CN2C(=O)CCC(=O)NCC2CCCCC2)ccc1Cl [Compound 12-3] | 50 to 250 |
| Cc1cccc(NC(=O)[C@H](CCN)NC(=O)[C@@H]2Cc3ccccc3CN2C(=O)CCC(=O)c2ccccc2)c1C#N [Compound 14-19] | 50 to 250 |

| Compound | EC50 [nM] |
| --- | --- |
| Cc1cccc(NC(=O)[C@H](CCN2CCC(O)CC2)NC(=O)[C@@H]2Cc3ccccc3CN2C(=O)CCC(=O)c2ccccc2)c1Cl (racemic) [Compound 25-3] | 250 to 500 |
| Cc1cc(NC(=O)[C@H](CCN)NC(=O)[C@@H]2Cc3ccccc3CN2C(=O)CCC(=O)N(C)c2ccccc2)ccc1Cl [Compound 12-124] | 250 to 500 |
| O=C(CCC(=O)N1Cc2ccccc2C[C@H]1C(=O)NC1(C(=O)Nc2cccc(Cl)c2Cl)CCNCC1)c1ccccc1 [Compound 11-5] | > 500 |
| O=C(CCC(=O)N1Cc2ccccc2C[C@H]1C(=O)N[C@@H](CCN1CCS(=O)(=O)CC1)C(=O)Nc1ccc2c(c1)CCC2)c1ccccc1 [Compound 23-9] | 50 to 250 |
| Cc1cc(NC(=O)[C@H](CCN)NC(=O)[C@@H]2Cc3ccccc3CN2C(=O)CCC(=O)N2CC[C@@H](C)C2)ccc1Cl [Compound 12-122] | < 50 |
| Cc1c(Cl)ccc(NC(=O)[C@H](CCN)NC(=O)[C@@H]2Cc3ccccc3CN2C(=O)CCC(=O)N2CCCCC2(C)C)c1Cl [Compound 15-52] | < 50 |
| Cc1cc(NC(=O)[C@H](CCN)NC(=O)[C@@H]2Cc3ccccc3CN2C(=O)CCC(=O)N2CCN(C)[C@@H](C)C2)ccc1Cl [Compound 12-36] | < 50 |
| Cc1cc(NC(=O)[C@H](CCN)NC(=O)[C@@H]2Cc3ccccc3CN2C(=O)CCC(=O)N2CC3CCC2C3)ccc1Cl (some centres unmarked) [Compound 12-32] | < 50 |
| NCC[C@H](NC(=O)[C@@H]1Cc2ccccc2CN1C(=O)CCC(=O)c1ccccc1)C(=O)Nc1cc(Cl)ccc1Cl [Compound 14-11] | 50 to 250 |
| Cc1cc(NC(=O)[C@H](CCN)NC(=O)[C@@H]2Cc3ccccc3CN2C(=O)CCC(=O)c2ccccc2)cc(Br)c1Cl [Compound 2-40] | < 50 |
| NCC[C@H](NC(=O)[C@@H]1Cc2ccccc2CN1C(=O)CCC(=O)c1ccccc1)C(=O)Nc1ccc(F)c(F)c1 [Compound 2-8] | > 500 |
| CN(CC(C)(C)C)C(=O)CCC(=O)N1Cc2ccccc2C[C@H]1C(=O)N[C@@H](CCN)C(=O)Nc1ccc(Cl)c(Cl)c1F [Compound 15-43] | < 50 |
| Cc1cc(NC(=O)[C@H](CCN)NC(=O)[C@@H]2Cc3ccccc3CN2C(=O)CCC(=O)N2CCC(C)(C)C2)ccc1Cl [Compound 12-29] | < 50 |
| Cc1cc(NC(=O)C(CC2CC[N+](C)(C)CC2)NC(=O)[C@@H]2Cc3ccccc3CN2C(=O)CCC(=O)c2ccccc2)ccc1Cl (mixture of isomers) [Compound 6-2, 4-((S)-3-((4-chloro-3-methylphenyl)amino)-3-oxo-2-((S)-2-(4-oxo-4-phenylbutanoyl)-1,2,3,4-tetrahydroisoquinoline-3-carboxamido)propyl)-1,1-dimethylpiperidin-1-ium iodide] | 50 to 250 |
| Cc1cc(NC(=O)[C@H](CCN)NC(=O)[C@@H]2Cc3ccccc3CN2C(=O)CCC(=O)N2CC3CCCCC3C2)ccc1Cl (some centres unmarked) [Compound 12-55] | < 50 |
| COc1cc(C)c(F)cc1NC(=O)[C@H](CCN)NC(=O)[C@@H]1Cc2ccccc2CN1C(=O)CCC(=O)c1ccccc1 [Compound 2-71] | 50 to 250 |
| Cc1cc(NC(=O)[C@H](CCN)NC(=O)[C@@H]2Cc3ccccc3CN2C(=O)CCC(=O)N2CCCC2)ccc1Cl [Compound 12-5] | < 50 |
| Cc1ccc(NC(=O)[C@H](CCN)NC(=O)[C@@H]2Cc3ccccc3CN2C(=O)CCC(=O)c2ccccc2)c(Cl)c1 [Compound 2-36] | 250 to 500 |
| Cc1ccc(NC(=O)[C@H](CCCCN)NC(=O)[C@@H]2Cc3ccccc3CN2C(=O)CCC(=O)c2ccccc2)cc1C(F)(F)F [Compound 1-30] | < 50 |
| CCc1cc(Cl)c(C)cc1NC(=O)[C@H](CCN)NC(=O)[C@@H]1Cc2ccccc2CN1C(=O)CCC(=O)c1ccccc1 [Compound 2-41] | 50 to 250 |
| NCC[C@H](NC(=O)[C@@H]1Cc2ccccc2CN1C(=O)CCC(=O)c1ccccc1)C(=O)Nc1cc(Cl)c(Cl)cc1C(F)(F)F [Compound 14-2] | < 50 |
| CCc1c(NC(=O)[C@H](CCN)NC(=O)[C@@H]2Cc3ccccc3CN2C(=O)CCC(=O)c2ccccc2)ccc(Cl)c1C [Compound 2-54] | > 500 |
| Cc1cc(NC(=O)[C@H](CCN)NC(=O)[C@@H]2Cc3ccccc3CN2C(=O)CCC(=O)N2CCN(C)C[C@@H]2C)ccc1Cl [Compound 12-116] | 50 to 250 |
| Cc1cc(NC(=O)[C@H](CCN)NC(=O)[C@@H]2Cc3ccccc3CN2C(=O)CCC(=O)N2CCCCCC2)ccc1Cl [Compound 12-13] | < 50 |
